Earlier results, collected in patent publication US4603221A, “Process for preparing substituted tetralones” (Ethyl Corporation, priority 1985, dated 1986).

Conditions: method generally in accordance with Gero et al., J. Org. Chem. 16, 1835-1838 (1951)

| pKa Value | Compound |
| --- | --- |
| 6.79 | Cc1ccnc(C)c1 [2,4-lutidine] |
| 6.62 | Cc1cccc(C)n1 [2,6-lutidine] |
